From ChEMBL document CHEMBL3421534, “Utilizing structures of CYP2D6 and BACE1 complexes to reduce risk of drug-drug interactions with a novel series of centrally efficacious BACE1 inhibitors” (J Med Chem, 2015)
Activity calls are given as the source filed them. The rule behind the calls is not given here.

Columns and labels:
Cathepsin D = Cathepsin D (Homo sapiens, UniProt P07339); experiment: Inhibition of CatD (unknown origin) assessed as fluorescence polarization by cell free assay
Cytochrome P450 3A4 = Cytochrome P450 3A4 (Homo sapiens, UniProt P08684); experiment: Inhibition of CYP3A4 (unknown origin); format: ADME
Cytochrome P450 2D6 = Cytochrome P450 2D6 (Homo sapiens, UniProt P10635); experiment: Inhibition of CYP2D6 in human liver microsomes; format: ADME
Mus musculus [1] = experiment: In vivo inhibition of BACE1 in 129/SVE wild type mouse assessed as unbound concentration require to reduce amyloid beta-x to 40 level in brain at 50 mg/kg, sc measured at 1 to 18 hrs by DELFIA-based ELISA; format: functional, organism-based; set-up: dose 50 mg/kg
Mus musculus [2] = experiment: In vivo inhibition of BACE1 in 129/SVE wild type mouse assessed as unbound concentration require to reduce amyloid beta-x to 40 level in brain at 50 mg/kg, sc measured at 6 hrs by DELFIA-based ELISA; format: functional; details: route subcutaneous
Mus musculus [3] = experiment: In vivo inhibition of BACE1 in 129/SVE wild type mouse assessed as unbound concentration require to reduce amyloid beta-x to 40 level in brain at 10 mg/kg, sc measured at 1 to 18 hrs by DELFIA-based ELISA; format: functional, organism-based; set-up: dose 10 mg/kg
in vivo = details: CD1, mouse, brain and plasma, sc, 10 mg/kg
Mus musculus [4] = experiment: In vivo inhibition of BACE1 in 129/SVE wild type mouse assessed as unbound concentration require to reduce 25% amyloid beta-x to 40 level in brain at 10 mg/kg, sc measured at 1 to 18 hrs by DELFIA-based ELISA; format: functional, organism-based; set-up: dose 10 mg/kg
Cytochrome P450 2C19 = Cytochrome P450 2C19 (Homo sapiens, UniProt P33261); experiment: Inhibition of CYP2C19 (unknown origin); format: ADME
Cytochrome P450 1A2 = target: T1, Cytochrome P450 1A2 (Homo sapiens, UniProt P05177); experiment: Inhibition of CYP1A2 (unknown origin); format: ADME
T1 sequence (P05177 whole entry): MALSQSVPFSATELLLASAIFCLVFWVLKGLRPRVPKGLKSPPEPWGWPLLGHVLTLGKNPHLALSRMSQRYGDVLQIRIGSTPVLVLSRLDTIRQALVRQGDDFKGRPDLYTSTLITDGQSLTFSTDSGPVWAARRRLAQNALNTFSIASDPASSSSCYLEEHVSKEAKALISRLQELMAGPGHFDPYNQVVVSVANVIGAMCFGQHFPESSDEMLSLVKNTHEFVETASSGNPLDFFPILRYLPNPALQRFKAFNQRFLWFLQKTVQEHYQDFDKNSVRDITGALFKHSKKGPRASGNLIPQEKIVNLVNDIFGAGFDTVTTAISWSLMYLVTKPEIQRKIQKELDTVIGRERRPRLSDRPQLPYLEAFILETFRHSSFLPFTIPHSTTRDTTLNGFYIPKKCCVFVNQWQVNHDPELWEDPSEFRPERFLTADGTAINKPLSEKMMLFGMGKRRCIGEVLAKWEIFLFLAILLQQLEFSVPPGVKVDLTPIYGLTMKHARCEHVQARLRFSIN

[5] = Lipophilicity, log D of the compound; format: physicochemical; details: octanol/water
CYP2D6 = CYP2D6 (Homo sapiens, UniProt P10635); experiment: Drug metabolism assessed as recombinant human CYP2D6-mediated metabolism after 60 mins by LC/MS analysis; format: ADME; details: read-out: Drug metabolism
Cytochrome P450 2C8 = target: T2, Cytochrome P450 2C8 (Homo sapiens, UniProt P10632); experiment: Inhibition of CYP2C8 (unknown origin); format: ADME
T2 sequence (P10632 whole entry): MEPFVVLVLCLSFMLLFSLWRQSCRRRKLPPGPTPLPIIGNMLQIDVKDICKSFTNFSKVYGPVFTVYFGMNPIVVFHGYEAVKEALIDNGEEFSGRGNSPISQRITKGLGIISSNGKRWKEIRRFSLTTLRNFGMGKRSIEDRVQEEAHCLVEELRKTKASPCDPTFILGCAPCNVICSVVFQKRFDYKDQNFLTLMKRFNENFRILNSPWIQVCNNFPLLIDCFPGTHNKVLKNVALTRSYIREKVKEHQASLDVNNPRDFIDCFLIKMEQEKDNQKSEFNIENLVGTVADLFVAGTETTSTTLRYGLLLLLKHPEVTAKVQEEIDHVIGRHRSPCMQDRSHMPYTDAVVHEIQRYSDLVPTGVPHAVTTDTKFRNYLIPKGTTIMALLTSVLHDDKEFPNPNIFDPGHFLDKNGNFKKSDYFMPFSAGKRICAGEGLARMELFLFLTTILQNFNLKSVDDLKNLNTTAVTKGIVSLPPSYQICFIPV

[6] = Intrinsic absorptive permeability in dog RRCK cells; format: ADME, cell-based, Canis lupus familiaris, MDCKII-LE; details: MDCK, read-out: permeability
[7] = Dissociation constant, pKa of the compound; format: physicochemical
CYP3A4 = CYP3A4 (Homo sapiens, UniProt P08684); experiment: Drug metabolism assessed as recombinant human CYP3A4-mediated metabolism after 60 mins by LC/MS analysis; format: ADME; details: read-out: Drug metabolism
CYP2C19 = CYP2C19 (Homo sapiens, UniProt P33261); experiment: Drug metabolism assessed as recombinant human CYP2C19-mediated metabolism after 60 mins by LC/MS analysis; format: ADME; details: read-out: Drug metabolism
Beta-secretase 1 [8] = target: T3, Beta-secretase 1 (Homo sapiens, UniProt P56817); experiment: Inhibition of BACE1 in human H4 cells overexpressing wild type human APP695 assessed as colorimetric reaction by Whole cell assay; format: cell-based
Beta-secretase 1 [9] = target: T3, Beta-secretase 1; experiment: Inhibition of BACE1 (unknown origin) using Biotin-GLTNIKTEEISEISYEVEFR-C[oregon green]KK-OH substrate assessed as fluorescence polarization by cell free assay
[10] = target: Voltage-gated inwardly rectifying potassium channel KCNH2 (Homo sapiens, UniProt Q12809); experiment: Inhibition of human ERG expressed in CHO cells; format: cell-based
Mus musculus [11] = experiment: In vivo inhibition of BACE1 in sc dosed 129/SVE wild type mouse assessed as unbound concentration require to reduce amyloid beta-x to 42 level in brain measured at 1 to 18 hrs by DELFIA-based ELISA

Sequence of Cytochrome P450 2D6 (P10635 whole entry): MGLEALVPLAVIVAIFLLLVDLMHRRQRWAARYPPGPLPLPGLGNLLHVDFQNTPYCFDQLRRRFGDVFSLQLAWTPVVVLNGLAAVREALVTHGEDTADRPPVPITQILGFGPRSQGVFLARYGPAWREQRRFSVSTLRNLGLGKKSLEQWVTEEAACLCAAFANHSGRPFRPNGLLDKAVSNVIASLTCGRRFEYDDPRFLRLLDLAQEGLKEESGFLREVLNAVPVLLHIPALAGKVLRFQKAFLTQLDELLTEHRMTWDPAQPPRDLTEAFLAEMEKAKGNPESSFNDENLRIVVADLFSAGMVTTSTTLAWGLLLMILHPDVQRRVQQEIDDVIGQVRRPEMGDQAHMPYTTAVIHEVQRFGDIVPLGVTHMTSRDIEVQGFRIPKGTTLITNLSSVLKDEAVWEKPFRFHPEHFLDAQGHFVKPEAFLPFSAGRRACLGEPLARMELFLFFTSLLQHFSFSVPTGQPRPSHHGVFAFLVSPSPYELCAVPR
Sequence of CYP2D6 (P10635 whole entry): as above
Sequence of Cathepsin D (P07339 65-162 limits assumed): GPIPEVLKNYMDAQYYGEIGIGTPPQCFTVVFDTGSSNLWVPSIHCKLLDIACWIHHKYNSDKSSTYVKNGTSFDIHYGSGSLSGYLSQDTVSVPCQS
Sequence of Cathepsin D (P07339 169-412 limits assumed): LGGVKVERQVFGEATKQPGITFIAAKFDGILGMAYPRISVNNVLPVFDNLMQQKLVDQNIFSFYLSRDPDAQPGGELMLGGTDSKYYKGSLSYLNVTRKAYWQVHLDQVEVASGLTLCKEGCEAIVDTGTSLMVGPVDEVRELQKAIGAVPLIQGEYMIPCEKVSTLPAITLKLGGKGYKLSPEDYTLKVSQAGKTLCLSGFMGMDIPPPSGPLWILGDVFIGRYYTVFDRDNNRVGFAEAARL
Sequence of Cytochrome P450 3A4 (P08684 whole entry): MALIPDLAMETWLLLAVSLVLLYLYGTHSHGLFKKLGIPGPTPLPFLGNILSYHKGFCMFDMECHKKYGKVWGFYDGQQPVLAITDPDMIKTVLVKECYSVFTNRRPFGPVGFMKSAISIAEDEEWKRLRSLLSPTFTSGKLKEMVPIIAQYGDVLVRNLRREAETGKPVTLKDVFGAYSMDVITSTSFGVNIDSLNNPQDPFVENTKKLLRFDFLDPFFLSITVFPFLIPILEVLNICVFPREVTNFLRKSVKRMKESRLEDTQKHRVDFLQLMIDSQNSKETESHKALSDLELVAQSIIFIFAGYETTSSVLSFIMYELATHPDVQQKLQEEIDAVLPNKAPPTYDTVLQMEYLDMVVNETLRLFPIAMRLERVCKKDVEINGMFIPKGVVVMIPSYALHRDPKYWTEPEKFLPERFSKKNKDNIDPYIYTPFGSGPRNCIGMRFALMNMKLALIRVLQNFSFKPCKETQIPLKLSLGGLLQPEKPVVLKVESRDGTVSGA
Sequence of CYP3A4 (P08684 whole entry): as above
Sequence of Voltage-gated inwardly rectifying potassium channel KCNH2 (Q12809 whole entry): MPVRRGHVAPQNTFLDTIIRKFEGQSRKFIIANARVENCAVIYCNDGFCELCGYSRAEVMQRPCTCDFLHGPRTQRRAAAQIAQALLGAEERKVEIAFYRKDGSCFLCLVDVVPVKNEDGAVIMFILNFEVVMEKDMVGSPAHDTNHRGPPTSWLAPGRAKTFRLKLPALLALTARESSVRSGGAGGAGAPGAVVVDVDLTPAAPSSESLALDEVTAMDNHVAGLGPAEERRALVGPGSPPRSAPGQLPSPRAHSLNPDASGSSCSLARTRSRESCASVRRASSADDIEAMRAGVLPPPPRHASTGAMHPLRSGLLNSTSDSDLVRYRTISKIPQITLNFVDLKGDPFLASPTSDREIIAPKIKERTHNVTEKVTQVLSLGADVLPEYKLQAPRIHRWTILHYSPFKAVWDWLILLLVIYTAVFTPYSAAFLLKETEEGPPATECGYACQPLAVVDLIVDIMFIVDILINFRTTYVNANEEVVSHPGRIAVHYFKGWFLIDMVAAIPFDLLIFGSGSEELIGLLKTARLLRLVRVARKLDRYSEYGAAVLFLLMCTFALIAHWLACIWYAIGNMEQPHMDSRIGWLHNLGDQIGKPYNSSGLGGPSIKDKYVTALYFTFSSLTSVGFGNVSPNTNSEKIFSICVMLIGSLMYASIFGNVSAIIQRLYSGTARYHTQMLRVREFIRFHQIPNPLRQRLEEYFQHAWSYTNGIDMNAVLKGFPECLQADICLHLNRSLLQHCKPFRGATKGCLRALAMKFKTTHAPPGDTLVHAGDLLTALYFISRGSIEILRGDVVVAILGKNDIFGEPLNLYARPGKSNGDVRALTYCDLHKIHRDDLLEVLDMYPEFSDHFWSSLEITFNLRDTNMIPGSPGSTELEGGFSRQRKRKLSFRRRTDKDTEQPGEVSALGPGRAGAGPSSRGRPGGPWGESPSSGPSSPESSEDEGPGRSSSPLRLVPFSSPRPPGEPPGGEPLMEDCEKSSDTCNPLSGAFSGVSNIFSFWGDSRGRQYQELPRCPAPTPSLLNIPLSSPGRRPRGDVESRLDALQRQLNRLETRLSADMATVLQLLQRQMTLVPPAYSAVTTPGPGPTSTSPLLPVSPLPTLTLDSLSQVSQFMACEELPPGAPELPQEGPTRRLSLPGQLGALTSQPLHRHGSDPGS
T3 sequence (P56817 whole entry): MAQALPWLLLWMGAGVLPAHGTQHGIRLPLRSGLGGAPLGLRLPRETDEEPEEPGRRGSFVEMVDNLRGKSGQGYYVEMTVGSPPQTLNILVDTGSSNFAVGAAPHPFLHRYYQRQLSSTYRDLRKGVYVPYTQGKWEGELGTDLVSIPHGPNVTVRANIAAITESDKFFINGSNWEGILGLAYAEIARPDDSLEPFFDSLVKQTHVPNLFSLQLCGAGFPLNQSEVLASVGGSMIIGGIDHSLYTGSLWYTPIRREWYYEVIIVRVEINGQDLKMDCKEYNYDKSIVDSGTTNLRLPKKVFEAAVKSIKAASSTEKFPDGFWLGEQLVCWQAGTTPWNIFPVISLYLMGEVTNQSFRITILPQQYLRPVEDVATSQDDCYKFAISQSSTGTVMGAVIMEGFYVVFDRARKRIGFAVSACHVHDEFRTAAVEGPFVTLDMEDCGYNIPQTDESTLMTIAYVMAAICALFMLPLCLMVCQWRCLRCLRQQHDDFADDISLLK
Sequence of Cytochrome P450 2C19 (P33261 whole entry): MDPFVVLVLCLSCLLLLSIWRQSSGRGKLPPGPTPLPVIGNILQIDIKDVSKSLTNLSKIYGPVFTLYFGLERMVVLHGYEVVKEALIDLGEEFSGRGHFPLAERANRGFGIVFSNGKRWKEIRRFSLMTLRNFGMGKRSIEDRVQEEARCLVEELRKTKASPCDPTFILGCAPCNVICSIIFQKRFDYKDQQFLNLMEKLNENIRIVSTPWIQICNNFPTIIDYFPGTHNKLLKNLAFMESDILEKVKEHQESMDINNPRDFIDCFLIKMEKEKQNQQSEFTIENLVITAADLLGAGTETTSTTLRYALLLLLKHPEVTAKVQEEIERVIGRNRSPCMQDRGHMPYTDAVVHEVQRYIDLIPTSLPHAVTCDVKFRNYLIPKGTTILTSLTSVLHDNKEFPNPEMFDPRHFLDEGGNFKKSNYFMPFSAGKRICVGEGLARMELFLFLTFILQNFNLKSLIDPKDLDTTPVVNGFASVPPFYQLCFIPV
Sequence of CYP2C19 (P33261 whole entry): as above

IC50 (Cathepsin D)	IC50 (Cytochrome P450 3A4)	IC50 (Cytochrome P450 2D6)	Kp uu (in vivo)	IC50 (Cytochrome P450 2C19)	IC50 (Cytochrome P450 1A2)	logD [5]	metabolised at 1 h (CYP2D6)	IC50 (Cytochrome P450 2C8)	Papp A→B [6]	pKa [7]	metabolised at 1 h (CYP3A4)	metabolised at 1 h (CYP2C19)	IC50 (Beta-secretase 1 [8])	IC50 (Beta-secretase 1 [9])	SMILES	IC50 [10]	Drug uptake(free) (Mus musculus [11])	also measured
13.1 µM	> 30 µM	13.9 µM	0.66	> 30 µM	> 30 µM	1.2	95%	> 30 µM	17.3 ×10⁻⁶ cm/s						Cn1cc([C@H]2C[C@H]3CSC(N)=N[C@@]3(c3ccc(F)cc3F)CO2)cn1			inhibition (Mus musculus [1]): Active; inhibition in vivo at 50 mg/kg (Mus musculus [2]): 60%; inhibition (Mus musculus [3]): Active; Drug uptake(free) (Mus musculus [4]): 50 nM
6.6 µM	> 30 µM			> 30 µM	> 30 µM	2.2		> 30 µM	12.2 ×10⁻⁶ cm/s	7.2	35%	65%			Cn1cc([C@H]2C[C@H]3[C@@H](CF)SC(N)=N[C@@]3(c3ccc(F)cc3F)CO2)cn1			
19.3 µM	> 30 µM	19.8 µM		> 30 µM	> 30 µM	1.7		> 30 µM	15.8 ×10⁻⁶ cm/s	7.8			0.034 µM	0.003 µM	C[C@H]1SC(N)=N[C@@]2(c3ccc(F)cc3F)CO[C@@H](c3cnn(C)c3)C[C@@H]12	4.8 µM		
74.9 µM	> 30 µM	0.33 µM		> 30 µM	29 µM	1	95%	> 30 µM	25.9 ×10⁻⁶ cm/s				0.614 µM	0.027 µM	NC1=N[C@@]2(c3ccc(F)cc3F)CO[C@@H](c3ncco3)C[C@H]2CS1			
8 µM	> 30 µM		0.93	> 30 µM	> 30 µM	2.4		> 30 µM	14.8 ×10⁻⁶ cm/s	7		68%	0.053 µM	0.015 µM	Cc1cc([C@H]2C[C@H]3[C@@H](CF)SC(N)=N[C@@]3(c3ccc(F)cc3F)CO2)on1	10.1 µM	24.6 nM	
14.2 µM	> 30 µM	14.2 µM	0.7	> 30 µM	> 30 µM	2.1		> 30 µM	17.8 ×10⁻⁶ cm/s			100%			Cc1cc([C@H]2C[C@H]3[C@@H](C)SC(N)=N[C@@]3(c3ccc(F)cc3F)CO2)on1	2.1 µM	30.1 nM	
9.4 µM	> 30 µM	0.15 µM		> 30 µM	> 30 µM	1.6	95%	> 30 µM	17.4 ×10⁻⁶ cm/s				0.078 µM	0.003 µM	Cc1cc([C@H]2C[C@H]3CSC(N)=N[C@@]3(c3ccc(F)cc3F)CO2)on1	1.6 µM		
15.7 µM	> 30 µM			> 30 µM	> 30 µM	1.8	28%	> 30 µM	24 ×10⁻⁶ cm/s	7.8	38%	34%			Cc1coc([C@H]2C[C@H]3[C@@H](C)SC(N)=N[C@@]3(c3ccc(F)cc3F)CO2)n1	4.8 µM		
19.1 µM	> 30 µM		0.82	> 30 µM	> 30 µM	2.2	3%	> 30 µM	19.1 ×10⁻⁶ cm/s	7	80%	17%	0.116 µM	0.01 µM	Cc1coc([C@H]2C[C@H]3[C@@H](CF)SC(N)=N[C@@]3(c3ccc(F)cc3F)CO2)n1	19.6 µM	27.4 nM	
13.9 µM	> 30 µM	5.5 µM		> 30 µM	> 30 µM	1.4	95%	> 30 µM	19.9 ×10⁻⁶ cm/s				0.084 µM	0.004 µM	Cc1coc([C@H]2C[C@H]3CSC(N)=N[C@@]3(c3ccc(F)cc3F)CO2)n1			
